Measured values as given in ChEMBL document CHEMBL4382200, “Discovery of Novel 7-Aryl 7-Deazapurine 3'-Deoxy-ribofuranosyl Nucleosides with Potent Activity against Trypanosoma cruzi” (J Med Chem, 2018).

Tests used:
[1] = Therapeutic index, ratio EC50 for human MRC5 SV2 cells to EC50 for Trypanosoma cruzi Tulahuen CL2 intracellular amastigotes; format: toxicity, cell-based; conditions: read-out: Ratio EC50
Trypanosoma cruzi = assay: Antiparasitic activity against Trypanosoma cruzi Tulahuen CL2 intracellular amastigotes expressing beta-galactosidase infected in human MRC5 SV2 cells after 7 days by chlorophenol red beta-D-galactopyranoside-based spectrophotometric analysis; format: functional, organism-based; conditions: Tulahuen CL2, MRC-5 SV2, 168 h, read-out: EC50
[2] = Cytotoxicity against human MRC5 SV2 cells assessed as reduction in cell viability after 3 days resazurin-based fluorimetric assay; conditions: MRC-5 SV2, 72 h

| Structure (SMILES) | selectivity ratio [1] | EC50 (Trypanosoma cruzi) | EC50 [2] |
| --- | --- | --- | --- |
| Nc1ncnc2c1c(-c1ccc(F)c(F)c1)cn2[C@@H]1O[C@H](CO)C[C@H]1O | > 190 | 330 nM | > 64000 nM |
| CCc1ccc(-c2cn([C@@H]3O[C@H](CO)C[C@H]3O)c3ncnc(N)c23)cc1 | 18 | 1040 nM | 18400 nM |
| Cc1ccc(-c2cn([C@@H]3O[C@H](CO)C[C@H]3O)c3ncnc(N)c23)cc1C | 16 | 1370 nM | 22300 nM |
| Nc1ncnc2c1ncn2[C@@H]1O[C@H](CO)C[C@H]1O [CORDYCEPIN] | > 25 | 2510 nM | > 64000 nM |
| Nc1ncnc2c1c(-c1cccc(Cl)c1)cn2[C@@H]1O[C@H](CO)C[C@H]1O | 37 | 970 nM | 36100 nM |
| Nc1ncnc2c1c(-c1ccc(Cl)c(Cl)c1)cn2[C@@H]1O[C@H](CO)C[C@H]1O | 230 | 59 nM | 13600 nM |
| Nc1ncnc2c1c(-c1ccc(F)cc1)cn2[C@@H]1O[C@H](CO)C[C@H]1O | > 100 | 640 nM | > 64000 nM |
